For one molecule, Km results are on record in article PMC13447983, “Identifying and characterising a plant GH1 β‐glucosidase that exhibits hydrolytic activity on N‐linked glucopyranoside” (FEBS Open Bio, 2026).

Structures are written as SMILES.

The test has as its target T1, ZmGlu1 (Zea mays, UniProt P49235).
T1 construct: gene GLU1; E. coli BL21 Star (DE3)
The test can be described thus: HPLC of released methyl anthranilate at […] nm, Michaelis-Menten fit. The test is classed as biochemical. The settings on record: 50 mM phosphate pH 6.0, 35 °C, 3 μM enzyme, 1.17-20 mM substrate.

T1 sequence (P49235 55-566): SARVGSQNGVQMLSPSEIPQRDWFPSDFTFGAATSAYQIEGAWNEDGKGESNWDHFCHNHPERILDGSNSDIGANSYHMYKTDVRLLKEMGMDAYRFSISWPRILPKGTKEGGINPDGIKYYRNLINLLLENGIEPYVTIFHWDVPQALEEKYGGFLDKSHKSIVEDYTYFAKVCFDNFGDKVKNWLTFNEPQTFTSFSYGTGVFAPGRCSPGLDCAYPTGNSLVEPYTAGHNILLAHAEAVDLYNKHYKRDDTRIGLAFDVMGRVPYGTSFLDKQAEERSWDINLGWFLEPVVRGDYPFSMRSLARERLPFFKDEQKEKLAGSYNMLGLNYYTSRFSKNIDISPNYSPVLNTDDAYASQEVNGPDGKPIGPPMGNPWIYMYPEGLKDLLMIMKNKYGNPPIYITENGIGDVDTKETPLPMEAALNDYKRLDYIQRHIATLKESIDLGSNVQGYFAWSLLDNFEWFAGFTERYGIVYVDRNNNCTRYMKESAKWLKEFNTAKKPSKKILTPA

Take `COC(=O)c1ccccc1N[C@@H]1O[C@H](CO)[C@@H](O)[C@H](O)[C@H]1O` [MANT‐N‐glucose, methyl anthranilate‐N‐β‐D‐glucopyranoside]: the Km came out at 13.7 ± 1.22 mM.
